For one assay, the system named is PDE1. Put plainly: Inhibition of PDE1 activity (two-step radioenzymatic assay). The assay is classed as biochemical, guinea pig. The settings on record: mean ± SEM (n); read-out: IC50 on PDE isozyme 1. The procedure:
Activities of PDE1–5, partially separated from guinea pig lungs and hearts according to the method described by Ko et al., were measured with a two-step procedure according to the method of Thompson and Appleman, using cAMP with [^3H]-cAMP or cGMP with [^3H]-cGMP as substrates. The enzyme pμreparation (25 μL) was incubated for 30 min at 37°C in a total assay volume of […] containing 50 mM Tris-HCl (pH 7.4), 3 mM MgCl2, 1 mM dithiothreitol, 0.05% BSA, 1 μM cAMP with 0.2 μCi [^3H]-cAMP as a substrate alone or in the presence of 0.1 units calmodulin with 10 μM CaCl2 or 5 μM cGMP, and 1 μM cGMP with 0.2 μCi [^3H]-cGMP as another substrate alone or in the presence of 0.1 units calmodulin with 10 μM CaCl2. In tests of enzyme inhibition, the reaction mixture contained 10 μL of vehicle or inhibitors, at various concentrations of S-petasin or selective PDE1–5 inhibitors, such as vinpocetin [22], EHNA [23], milrinone, Ro 20-1724 [25] and zaprinast, as reference drugs. The reagents and homogenate were mixed on ice, and the reaction was initiated by transferring the mixture to a water bath at 37°C. Following a 30-min incubation, the reaction was stopped by transferring the reaction vessel to a bath of boiling water for 3 min. After cooling on ice, 20 μL of a 1 mg/mL solution of C. atrox snake venom was added to the reaction mixture, and the mixture was incubated at 37°C for 10 min. […]

Another assay deals with T1, PDE2 (Cavia porcellus, UniProt A0A286XUV5).
T1 sequence (A0A286XUV5 22-936): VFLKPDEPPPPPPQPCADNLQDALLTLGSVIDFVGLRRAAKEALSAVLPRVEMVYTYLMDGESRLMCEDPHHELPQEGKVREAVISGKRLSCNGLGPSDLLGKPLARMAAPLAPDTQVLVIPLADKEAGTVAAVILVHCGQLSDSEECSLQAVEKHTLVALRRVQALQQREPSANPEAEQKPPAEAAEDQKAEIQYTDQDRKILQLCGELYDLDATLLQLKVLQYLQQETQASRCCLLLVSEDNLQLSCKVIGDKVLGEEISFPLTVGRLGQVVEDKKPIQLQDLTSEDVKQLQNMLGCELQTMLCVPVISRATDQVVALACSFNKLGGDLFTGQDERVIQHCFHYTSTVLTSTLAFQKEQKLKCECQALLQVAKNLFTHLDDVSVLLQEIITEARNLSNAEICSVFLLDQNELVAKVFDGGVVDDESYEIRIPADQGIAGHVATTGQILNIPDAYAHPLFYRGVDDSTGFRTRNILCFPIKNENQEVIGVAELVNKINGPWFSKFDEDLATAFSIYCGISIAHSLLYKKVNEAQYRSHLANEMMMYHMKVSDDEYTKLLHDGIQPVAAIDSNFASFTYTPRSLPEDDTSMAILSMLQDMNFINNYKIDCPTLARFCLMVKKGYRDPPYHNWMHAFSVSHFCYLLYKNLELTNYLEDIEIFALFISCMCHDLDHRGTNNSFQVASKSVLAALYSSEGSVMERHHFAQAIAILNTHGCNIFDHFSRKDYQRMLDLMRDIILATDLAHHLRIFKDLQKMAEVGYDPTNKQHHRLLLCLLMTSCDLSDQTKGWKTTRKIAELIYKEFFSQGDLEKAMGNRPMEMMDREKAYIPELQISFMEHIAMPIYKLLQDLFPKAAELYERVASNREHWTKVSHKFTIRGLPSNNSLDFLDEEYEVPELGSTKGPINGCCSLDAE
The assay can be described thus: Inhibition of PDE2 activity (two-step radioenzymatic assay). The assay is classed as biochemical, guinea pig. The conditions noted are these: mean ± SEM (n); read-out: IC50 on PDE isozyme 2. The procedure: Activities of PDE1–5, partially separated from guinea pig lungs and hearts according to the method described by Ko et al., were measured with a two-step procedure according to the method of Thompson and Appleman, using cAMP with [^3H]-cAMP or cGMP with [^3H]-cGMP as substrates. The enzyme pμreparation (25 μL) was incubated for 30 min at 37°C in a total assay volume of […] containing 50 mM Tris-HCl (pH 7.4), 3 mM MgCl2, 1 mM dithiothreitol, 0.05% BSA, 1 μM cAMP with 0.2 μCi [^3H]-cAMP as a substrate alone or in the presence of 0.1 units calmodulin with 10 μM CaCl2 or 5 μM cGMP, and 1 μM cGMP with 0.2 μCi [^3H]-cGMP as another substrate alone or in the presence of 0.1 units calmodulin with 10 μM CaCl2. […] The reagents and homogenate were mixed on ice, and the reaction was initiated by transferring the mixture to a water bath at 37°C. Following a 30-min incubation, the reaction was stopped by transferring the reaction vessel to a bath of boiling water for 3 min. After cooling on ice, 20 μL of a 1 mg/mL solution of C. atrox snake venom was added to the reaction mixture, and the mixture was incubated at 37°C for 10 min. Unreacted [^3H]-cAMP or [^3H]-cGMP was removed by the addition of 500 μL of a 1-in-1 Tris-HCl (40 mM) buffer suspension of Dowex resin (1 × 8-200) with incubation on ice for 30 min. […]

For another assay, the target named is PDE4. Put plainly: Inhibition of PDE4 activity and Lineweaver-Burk analysis. The assay is classed as biochemical, guinea pig. The procedure: Activities of PDE1–5, partially separated from guinea pig lungs and hearts according to the method described by Ko et al., were measured with a two-step procedure according to the method of Thompson and Appleman, using cAMP with [^3H]-cAMP or cGMP with [^3H]-cGMP as substrates. The enzyme pμreparation (25 μL) was incubated for 30 min at 37°C in a total assay volume of […] containing 50 mM Tris-HCl (pH 7.4), 3 mM MgCl2, 1 mM dithiothreitol, 0.05% BSA, 1 μM cAMP with 0.2 μCi [^3H]-cAMP as a substrate alone or in the presence of 0.1 units calmodulin with 10 μM CaCl2 or 5 μM cGMP, and 1 μM cGMP with 0.2 μCi [^3H]-cGMP as another substrate alone or in the presence of 0.1 units calmodulin with 10 μM CaCl2. In tests of enzyme inhibition, the reaction mixture contained 10 μL of vehicle or inhibitors, at various concentrations of S-petasin or selective PDE1–5 inhibitors, such as vinpocetin [22], EHNA [23], milrinone, Ro 20-1724 [25] and zaprinast, as reference drugs. The reagents and homogenate were mixed on ice, and the reaction was initiated by transferring the mixture to a water bath at 37°C. Following a 30-min incubation, the reaction was stopped by transferring the reaction vessel to a bath of boiling water for 3 min. After cooling on ice, 20 μL of a 1 mg/mL solution of C. atrox snake venom was added to the reaction mixture, and the mixture was incubated at 37°C for 10 min. Unreacted [^3H]-cAMP or [^3H]-cGMP was removed by the addition of 500 μL of a 1-in-1 Tris-HCl (40 mM) buffer suspension of Dowex resin (1 × 8-200) with incubation on ice for 30 min. Each tube was then centrifuged for 2 min at 3700 g, and 150 μL of the supernatant was removed for liquid scintillation counting. Less than 10% of the tritiated cyclic nucleotide was hydrolyzed in this assay. The total protein in each fraction used was assayed according to the method described by Bradford. The PDE activities are shown as nmol/mg/min in the Lineweaver-Burk analysis.

Assay [1] relates to isolated sensitized guinea pig trachea. The assay can be described thus: OVA-induced tracheal contractions and baseline tension in vitro. How it is done:
Male Hartley guinea pigs (500–600 g) were sensitized by intramuscular injections of 0.7 mL of 5% (w/v) OVA in saline on Days 1, 4 and 43, and in adjuvant on Days 25 and 39 into each thigh, according to a method described by Underwood et al. and modified by us. Three days after the last injection, sensitized guinea pigs were sacrificed by cervical dislocation, and their tracheas removed. Each trachea was cut into six segments. Each segment consisted of three cartilage rings. All segments were cut open opposite the trachealis. […] Tissues were suspended in normal Krebs solution under an initial tension of 1.5 g and allowed to equilibrate for at least 1 h with washing at 15-min intervals. After the tissues were precontracted with KCl (60 mM) and washed with normal Krebs solution, OVA (0.1–100 μg/mL) was cumulatively added, and contractions were allowed to reach a steady state at each concentration. […] Therefore, the log concentration-response curves of OVA were constructed in the absence and presence of S-petasin. The tension of the precontraction induced by KCl was set as 100%.

Assay [2] has as its system high-affinity rolipram binding sites (HARBSs) of guinea pig brain cell membranes. Put plainly: Displacement of [3H]-rolipram (PDE4H determination). How it is done:
When the above-described guinea pigs were sacrificed, the whole brains were removed and homogenized with a glass/Teflon homogenizer (Glas-Col, Terre Haute, IN, USA) in 10 volumes of cold medium (pH 6.5) containing 20 mM Bis-Tris, 2 mM benzamidine, 2 mM EDTA, 50 mM sodium chloride, 0.1 mM PMSF and 1 mM dithiothreitol. At 4°C, the homogenate was centrifuged at 170 g for 5 min to remove connective tissues and blood vessels. The suspended homogenate was then re-centrifuged at 40 000 g for 30 min to separate the cytosolic and particulate portions. The particulate portion was re-suspended in a suspension at a concentration of 400 mg/mL (wet weight/volume), after washing three times with homogenizing buffer. The particulate portion mainly consisted of cell membranes. The binding ability of S-petasin (3–300 μM) or Ro 20-1724 (1–10,000 nM), a reference drug, to high-affinity rolipram binding sites (HARBSs) of the membranes was determined by replacing 2 nM [^3H]-rolipram in a reaction buffer at 30°C for 1 h, according to the method described by previous investigators and modified by us. Briefly, the reaction buffer consisted of 50 mM Tris-HCl and 5 mM MgCl2 (pH 7.5). The total volume of the reaction mixture was 25 μL, consisting of 10 μL of particulate suspension, 10 μL of [^3H]-rolipram and 5 μL of S-petasin or Ro 20-1724. After 1 h, the reaction was terminated by moving the reaction vessel into crushed ice. Then the reaction mixture was transferred onto Whatman GF/B glass-fiber filters, which were soaked in a 0.3% polyethyleneimine solution in a mini-funnel. The reaction mixture was filtered by centrifuging at 90 g for 10 s, and the filtrate was collected into a 1.5 mL Eppendorf tube with a top adapted to the outlet of the mini-funnel. The filters were washed with 300 μL of reaction buffer three times each in the same way, and transferred into 2 mL of cocktail for radiation counting (total binding) using a β-scintillation counter (Beckman, Fullerton, CA, USA). Non-specific binding, which was defined in the presence of 10 μM Ro 20-1724, was subtracted from the total binding to yield the specific binding. The effective concentration (EC50) values of S-petasin and Ro 20-1724, at which a half of [^3H]-rolipram bound onto HARBSs of cell membranes was displaced, were defined as the PDE4H values, and these were related to any adverse effects, such as nausea, vomiting and gastric hypersecretion.

Structures can show the parent of a compound that is named as a salt.

With `CCOC(=O)C1=C[C@]2(CC)CCCN3CCc4c(n1c1ccccc41)[C@@H]32` [vinpocetin, Vinpocetine, reference compound], in the assay with PDE1, the half-inhibitory concentration (IC50) amounted to 36.5 ± 8.8 µM.

With `CCCCCC[C@@H]([C@@H](C)O)n1cnc2c(N)ncnc21` (racemic) [EHNA, erythro-9-(2-hydroxy-3-nonyl)-adenine HCl], the IC50 at PDE2 turned out to be 6.5 ± 1 µM.

Regarding `CCCCOc1cc(CC2CNC(=O)N2)ccc1OC` (stereo not shown) [Ro 20-1724, 4-(3-butoxy-4-methoxybenzyl)-2-imidazolidinone, reference compound], the inhibition constant Ki on PDE4 (Lineweaver-Burk analysis, cAMP substrate, read-out: Ki on PDE isozyme 4) stood at 4.2 ± 0.7 µM. Moreover, in the assay with PDE4 (Lineweaver-Burk analysis, S-petasin 3–30 μM, Ro 20-1724 1–10 μM), the “Mode of inhibition of PDE4 activity” value was “competitively inhibited”. In addition, the half-inhibitory concentration (IC50) in the assay with PDE4 (mean ± SEM (n), read-out: IC50 on PDE isozyme 4 (taken as PDE4L value)) came to 6.9 ± 0.6 µM. Also, in assay [1] (30 μM), the “OVA (10 μg/mL)-induced contractions” value is on record as “significantly inhibited”. In addition, the Baseline tension result in assay [1] (3–30 μM) was “concentration-dependently and significantly relaxed”. The “OVA (10–100 μg/mL)-induced contractions” value in assay [1] (10–30 μM) is on record as “concentration-dependently inhibited”. Further, the EC50 in assay [2] (HARBSs of guinea pig brain cell membranes) turned out to be 0.0958 ± 0.0136 µM. Further, the “percentage displacement of [3H]-rolipram binding” value in assay [2] (at the highest concentration (10 000 nM), 2 nM [3H]-rolipram) was 100%±2.1%.

Source of the values: publication PMC3094704, “S-Petasin, the Main Sesquiterpene of Petasites formosanus, Inhibits Phosphodiesterase Activity and Suppresses Ovalbumin-Induced Airway Hyperresponsiveness” (Evidence-based Complementary and Alternative Medicine : eCAM, 2011).
